This is an account of results in patent US10617664B2, “Brain derived PPARα ligands” (Rush University Medical Center, priority 2015, dated 2020).

Type in all cases: cell-based, mouse
The test system of assay [1] is AMPA-driven calcium influx. Nature of the assay: AMPA-driven calcium influx in transduced Ppara-null hippocampal neurons. Here is the method:
(§1) Ppara-null hippocampal neurons were transduced with lentivirions containing GFP (vector), FL-Ppara, and Y464D-Ppara for 48 h followed by treatment with vehicle (DMSO) (FIG. 11A), OCT (FIG. 11B), HEX (FIG. 11C), HMB (FIG. 11D), and WY14643 (FIG. 11E) for 24 h. Then neurons were stained for phalloidin to measure spine density. FIG. 11F) A representative picture of dendrite with spines (Cyan color) used for counting area of spine heads. Area of spine heads (FIG. 11G) and number of spines (FIG. 11H) in 10 μm of dendrites. Results are mean±SEM of 5 neurons per group. ^ap<0.05 vs vector only; ^bp<0.05 vs FL-Ppara. AMPA-driven calcium influx was measured in OCT (red), HEX (green) and HMB (purple)-treated Ppara-null hippocampal neurons transduced with lentivirions containing FL-Ppara (FIG. 11I), Y314D-Ppara (FIG. 11J), Y464D-Ppara (FIG. 11K), and Y314D/Y464D-Ppara (FIG. 11L). All neurons were treated with 50 μM of NMDA receptor antagonist N20C to inhibit passive calcium flow through NMDA receptor. (FIG. 11M-P) Similarly NMDA-driven calcium influx was measured in the lentivius-infected Ppara-null hippocampal neurons in the presence of different endogenous ligands. In these cases, Naspm-HCl was treated to stop the passive flow of calcium currents through AMPA receptor. Results are mean of three independent experiments.

Assay [2] concerns Ppara-null hippocampal neurons. Kind of assay: Dendritic spine density (phalloidin) in transduced Ppara-null hippocampal neurons. The conditions noted are these: lenti-FL-Ppara. Here is the method:
as §1
Dendritic spines are the crucial mediators of synaptic transmission among central neurons and often serve as a primary candidate for the long term morphological substrates of neuronal plasticity^12,13. Therefore, the effect of these ligands on the increase of spine density in cultured hippocampal neurons was studied. Briefly, mouse Ppara-null hippocampal neurons were transduced with lentivirus containing empty vector, FL-Ppara, or Y464D-Ppara for a week followed by the treatment with OCT, HEX, and HMB for four more days. After that, neurons were labelled with phalloidin to monitor the spine density. […] This observation was further validated by measuring the area of spine heads (FIG. 11F-G) and number of spines (FIG. 11H) in HEX, OCT, and HMB-treated Ppara-null neurons. HEX (FIG. 17G-H), OCT (FIG. 17I-J) and HMB (FIG. 17K-L) stimulated the expression of CREB in Ppara-null hippocampal neurons that were transduced with lentivirons containing the FL-Ppara gene.
Hippocampal regions were dissected from 18-day-old embryonic fetus as described elsewhere (PMID: 25007337), combined and plated in poly-D-lysine coated plate for another 2-3 weeks for branching. After that, these neurons were transduced with GFP-containing lentivirions for 2 d. Neurons were stained with Dylight-554-conjugated phalloidin (Cat #21834; Thermofisher) as per manufactures protocol and visualized in fluorescence microscope. […]

Another assay concerns CREB. Nature of the assay: Immunoblot of CREB in Ppara-null hippocampal neurons transduced with Ppara constructs. Here is the method: (FIG. 17A) Immunoblot analyses followed by densitometric analyses of NR2A (FIG. 17B), GluR1 (FIG. 17C) and CREB (FIG. 17D) were performed in Ppara-null and WT hippocampal neurons treated with 5 μM HEX, 5 μM OCT and 50 μM HMB. Data are mean±SD of three different experiments. ^ap<0.05 versus WT-control. Immunocytochemical analyses of NR2A (FIG. 17E) and GluR1 (FIG. 17F) in WT and Ppara-null hippocampal neurons treated with HEX, OCT and HMB. Hippocampal neurons were transduced with lenti-GFP for 48 h followed by treatment with different ligands. Immunoblot analyses followed by relative densitometric analyses of CREB in Ppara-null hippocampal neurons transduced with lentivirions containing different Ppara constructs followed by treatment with HEX (FIG. 17G-H), OCT (FIG. 17I-J) and HMB (FIG. 17K-L). Bands were scanned and presented as relative to control (FIG. 17H, HEX; FIG. 17J, OCT; FIG. 17L, HMB). Data are mean±SD of three different experiments. ^ap<0.05 vs FLPpara control.
For whole-cell and tissue lysates, samples were homogenized in RIPA buffer containing protease and phosphatase inhibitors (Sigma), passed 10 times through a 26-gauge needle, rotated end over end for 30 min at 4° C., and centrifuged for 10 min at 18,000×g. The supernatant was aliquoted and stored at −80° C. until use. Protein concentrations were determined using a NanoDrop 2000 (Thermo Fisher), and 15-30 μg sample was heat-denatured and resolved on 10% or 12% polyacrylamide-SDS gels, transferred to 0.45 μm nitrocellulose membranes under semidry conditions (15V for 12 min). Membranes were blocked for 1 h with blocking buffer (Li-Cor), incubated with primary antibodies overnight at 4° C. under shaking conditions, washed, incubated with IR-dye-labeled secondary antibodies (1:17,000; Li-Cor) for 45 min at room temperature, washed, and visualized with the Odyssey Infrared Imaging System (Li-Cor). Blots were converted to grayscale and then binary, analyzed using Fiji, and normalized to appropriate loading controls.

Molecules are shown by their SMILES.

Turning to `CCCCCCCCC=CCCCCCCCC(N)=O` [OCT, 9-octadecenamide], the AMPA-mediated calcium influx result is recorded as “stimulated” in assay [1] (lenti-FL-Ppara), “partially restore” in assay [1] (lenti-Y314D-Ppara), “remained unable to increase” in assay [1] (lenti-Y314D/Y464D-Ppara) and “remained unable to increase” in assay [1] (lenti-Y464D-Ppara). Besides, in assay [2], the density of spines result is reported as “stimulated”. For the same molecule, the “expression of CREB” value with CREB (FL-Ppara) is “stimulated”; with CREB (lenti-Y314D-Ppara), “only partially restored”; in the assay with CREB (lenti-Y464D-Ppara), “remained unable to increase”; in the assay on CREB (lenti-Y464D/Y314D-Ppara) it was “remained unable to increase”.

`CCCCCCCCCCCCCCCC(N)=O` [HEX, hexadecanamide]: the AMPA-mediated calcium influx result in assay [1] (lenti-FL-Ppara) is reported as “stimulated”; in assay [1] (lenti-Y314D-Ppara), “partially restore”; in assay [1] (lenti-Y314D/Y464D-Ppara), “remained unable to increase”; in assay [1] (lenti-Y464D-Ppara) it was “remained unable to increase”. Besides, in assay [2], the density of spines result was “stimulated”. The “expression of CREB” value in the assay on CREB (FL-Ppara) was “stimulated”; in the assay on CREB (lenti-Y314D-Ppara), “only partially restored”; with CREB (lenti-Y464D-Ppara), “remained unable to increase”; in the assay with CREB (lenti-Y464D/Y314D-Ppara), “remained unable to increase”.

With `CCOC(=O)C(C)(C)C(C)O` (stereo not drawn) [HMB], the AMPA-mediated calcium influx entry is “stimulated” in assay [1] (lenti-FL-Ppara), “partially restore” in assay [1] (lenti-Y314D-Ppara), “remained unable to increase” in assay [1] (lenti-Y314D/Y464D-Ppara) and “remained unable to increase” in assay [1] (lenti-Y464D-Ppara). The density of spines entry in assay [2] is recorded as “stimulated”. For the same molecule, the “expression of CREB” value with CREB (FL-Ppara) is “stimulated”; in the assay on CREB (lenti-Y314D-Ppara), “only partially restored”; in the assay on CREB (lenti-Y464D-Ppara), “remained unable to increase”; with CREB (lenti-Y464D/Y314D-Ppara), “remained unable to increase”.
